How the values were obtained:
[1] = test system: pulmonary artery smooth muscle cells derived from patients with idiopathic pulmonary arterial hypertension (IPAH-PASMCs); experiment: ability to suppress the proliferation of pulmonary artery smooth muscle cells from patients with pulmonary hypertension (MTT assay); assay type: cell-based, human; details: for day 2/day 0 cell number ratio (MTT cell viability): 48 hours, IPAH-PASMC line 1, 10% FBS control 1.40; for suppressive effect on the proliferation of pulmonary artery smooth muscle cells: same method as Example 1, data not shown
Description: The following compounds were used to assess the abilities of these compounds to suppress the proliferation of pulmonary artery smooth muscle cells from patients with pulmonary hypertension (IPAH-PASMC line: 1)
Those compounds were obtained by synthesis in the Faculty of Pharmaceutical Sciences, Tohoku University. Specifically, first, 66 μl each of pulmonary artery smooth muscle cells derived from patients with idiopathic pulmonary arterial hypertension (IPAH-PASMCs) suspended in a 10% FBS medium (DMEM supplemented with 10% FBS) were seeded in a 96-well plate at 50,000 cells/ml (day −1). 24 Hours after the cell seeding (the time point was defined as day 0), 33 μl each of 300 nM, 3 μM, and 15 μM solutions of CEL-1 to CEL-8, CEL-10, CEL-13 to CEL-15, and CEL-19 in 10% FBS containing 1% DMSO were added to the wells so that the final concentrations were 100 nM, 1 μM, and 5 μM, respectively. As a control, 33 μl of 10% FBS containing 1% DMSO was added in place of CEL-1 to CEL-8, CEL-10, CEL-13 to CEL-15, and CEL-19. On day 0 (immediately before the addition of each of CEL-1 to CEL-8, CEL-10, CEL-13 to CEL-15, and CEL-19), a cell viability was confirmed by performing CellTiter 96 (trademark) AQueous One Solution Cell Proliferation Assay, promega MTT assay. Further, 48 hours after the addition of each of CEL-1 to CEL-8, CEL-10, CEL-13 to CEL-15, and CEL-19 (day 2), the MTT assay was performed again to observe a change in cell viability. Thus, a cell proliferation-suppressing effect was assessed.
In addition, in the case where R^2 in the general formula (I) represents an alkyl group, in order to explore an association between the length of the alkyl group and a pulmonary artery smooth muscle cell proliferation-suppressing effect, a test on an ability to suppress the proliferation of the pulmonary artery smooth muscle cells from patients with pulmonary hypertension (IPAH-PASMC line:1) was performed three times, and the lengths of alkyl groups of the respective compounds and the results of stimulation with the compounds at a concentration of 5 μM for 48 hours (averages of day 2/day 0 cell number ratios) were shown graphically. A Pearson's correlation test was performed on the lengths of the alkyl groups and the day 2/day 0 cell number ratios. As a result, a significant correlation was found with a P-value of 0.0298.

[2] = target: zinc finger protein ZFC3H1 (Homo sapiens, UniProt O60293); details: Non-patent Literature 2; cited from earlier work
Sequence of zinc finger protein ZFC3H1 (O60293 whole entry): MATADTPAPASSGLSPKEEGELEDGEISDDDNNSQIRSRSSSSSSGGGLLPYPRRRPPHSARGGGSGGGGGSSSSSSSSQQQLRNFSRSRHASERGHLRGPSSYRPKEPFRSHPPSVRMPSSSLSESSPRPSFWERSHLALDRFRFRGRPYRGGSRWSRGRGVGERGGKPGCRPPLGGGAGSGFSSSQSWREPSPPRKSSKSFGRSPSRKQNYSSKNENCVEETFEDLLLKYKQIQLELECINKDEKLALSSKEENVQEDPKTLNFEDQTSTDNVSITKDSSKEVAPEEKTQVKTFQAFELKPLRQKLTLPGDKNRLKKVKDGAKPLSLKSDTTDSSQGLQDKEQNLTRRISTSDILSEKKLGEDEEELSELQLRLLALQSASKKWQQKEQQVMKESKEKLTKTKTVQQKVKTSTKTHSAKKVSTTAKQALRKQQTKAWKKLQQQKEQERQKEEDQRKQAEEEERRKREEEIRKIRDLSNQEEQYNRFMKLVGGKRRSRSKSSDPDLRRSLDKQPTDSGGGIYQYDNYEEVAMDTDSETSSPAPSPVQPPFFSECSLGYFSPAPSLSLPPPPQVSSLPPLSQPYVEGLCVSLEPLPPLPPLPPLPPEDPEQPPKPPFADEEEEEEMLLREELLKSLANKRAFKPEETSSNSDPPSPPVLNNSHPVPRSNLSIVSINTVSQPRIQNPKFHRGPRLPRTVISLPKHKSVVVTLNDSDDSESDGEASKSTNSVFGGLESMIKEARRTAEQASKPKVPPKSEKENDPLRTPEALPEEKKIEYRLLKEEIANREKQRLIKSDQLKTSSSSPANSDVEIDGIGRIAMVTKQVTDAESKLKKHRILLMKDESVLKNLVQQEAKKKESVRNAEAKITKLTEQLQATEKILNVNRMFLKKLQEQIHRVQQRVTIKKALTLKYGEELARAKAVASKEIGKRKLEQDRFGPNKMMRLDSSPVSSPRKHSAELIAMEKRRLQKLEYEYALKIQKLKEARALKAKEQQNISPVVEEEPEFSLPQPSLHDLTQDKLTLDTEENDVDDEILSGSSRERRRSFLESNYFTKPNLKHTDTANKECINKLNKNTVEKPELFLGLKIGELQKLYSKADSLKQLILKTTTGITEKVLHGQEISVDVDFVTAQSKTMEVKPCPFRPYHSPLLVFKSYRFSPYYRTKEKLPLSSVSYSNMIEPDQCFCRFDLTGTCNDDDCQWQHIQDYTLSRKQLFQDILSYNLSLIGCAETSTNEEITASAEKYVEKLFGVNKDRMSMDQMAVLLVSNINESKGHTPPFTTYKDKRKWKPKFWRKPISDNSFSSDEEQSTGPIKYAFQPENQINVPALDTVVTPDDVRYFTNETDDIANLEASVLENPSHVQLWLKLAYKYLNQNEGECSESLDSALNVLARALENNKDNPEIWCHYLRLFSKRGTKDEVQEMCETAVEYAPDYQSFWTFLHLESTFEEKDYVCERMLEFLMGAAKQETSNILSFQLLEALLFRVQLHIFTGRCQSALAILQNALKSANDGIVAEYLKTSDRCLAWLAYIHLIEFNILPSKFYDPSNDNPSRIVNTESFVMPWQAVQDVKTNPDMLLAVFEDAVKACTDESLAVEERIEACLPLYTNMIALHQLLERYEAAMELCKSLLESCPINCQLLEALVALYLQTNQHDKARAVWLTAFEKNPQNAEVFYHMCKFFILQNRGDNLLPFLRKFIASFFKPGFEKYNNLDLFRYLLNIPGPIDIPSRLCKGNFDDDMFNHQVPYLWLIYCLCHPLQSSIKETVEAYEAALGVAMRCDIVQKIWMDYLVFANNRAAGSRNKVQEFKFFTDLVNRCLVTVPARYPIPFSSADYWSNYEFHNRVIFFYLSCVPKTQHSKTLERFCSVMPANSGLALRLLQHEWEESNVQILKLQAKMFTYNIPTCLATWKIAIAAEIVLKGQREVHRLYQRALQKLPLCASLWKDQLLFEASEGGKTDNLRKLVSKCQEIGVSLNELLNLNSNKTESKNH

[3] = test system: transcription factor NF-κB; details: Non-patent Literature 2 and 3; cited from earlier work
[4] = test system: hypoxia-induced pulmonary hypertension mouse model; experiment: hypoxia-induced pulmonary hypertension mouse model; assay type: in vivo, C57BL/6 mice; details: 10 mg/kg/day continuous subcutaneous infusion
Description: Next, the therapeutic effect of CEL-3 on pulmonary hypertension was assessed in vivo. Specifically, the influence of CEL-3 on a hypoxia-induced pulmonary hypertension mouse model was investigated. The pulmonary hypertension mouse model was generated by breeding 9-week-old male C57BL/6 mice (n=14) in a hypoxic chamber having an oxygen concentration of from 8% to 12%. Before being housed in the hypoxic chamber, the mice were implanted with an osmotic pump containing CEL-3 dissolved with 50% DMSO, and were administered CEL-3 at 10 mg/kg/day by continuous subcutaneous infusion. The Vehicle group was administered a DMSO solution at the same concentration with an osmotic pump. The mice were bred in the hypoxic chamber for 3 weeks and then sacrificed to measure a right ventricular systolic pressure (RVSP) with a pressure catheter 1.2F (Transonic Scisense, US). In addition, after formalin fixation, the right ventricle and the left ventricle were separated to measure a right ventricle/(left ventricle plus septum) weight ratio RV/[LV+S]). Then, the extent of pulmonary hypertension was assessed on the basis of those results. The body weights of the Vehicle group and the CEL-3 administration group before the test were each 25.6±0.3 g. In addition, the body weights of the Vehicle group and the CEL-3 administration group after the test were 24.2±0.8 g and 23.9±0.7 g, respectively.

[5] = test system: SU5416/hypoxia-induced pulmonary hypertension rat model; experiment: SU5416/hypoxia-induced pulmonary hypertension rat model; assay type: in vivo, Sprague-Dawley rats; details: 3 mg/kg intraperitoneally daily for 2 weeks
Description: The pulmonary hypertension rat model was generated by: subcutaneously injecting 6-week-old male Sprague-Dawley rats ([…]) with SU5416 at 20 mg/kg; and then breeding the rats in a hypoxic chamber having an oxygen concentration of from 8% to 12% for 3 weeks followed by breeding the rats under normoxia for 2 weeks. After the hypoxic stimulation for 3 weeks, the rats were intraperitoneally injected with CEL-3 dissolved with 10% DMSO at 3 mg/kg daily for 2 weeks. The Vehicle group was intraperitoneally injected with a DMSO solution at the same concentration. The rats were treated with CEL-3 for 2 weeks and then sacrificed to measure a right ventricular systolic pressure (RVSP) with a pressure catheter 1.6F (Transonic Scisense, US). In addition, after formalin fixation, the right ventricle and the left ventricle were separated to measure a right ventricle/(left ventricle plus septum) weight ratio (RV/[LV+S]). Then, the extent of pulmonary hypertension was assessed on the basis of those results. The body weights of the Control group, the Vehicle group, and the CEL-3 administration group before the test were 160.8±1.7 g, 163.4±2.5 g, and 158.9±1.9 g, respectively. In addition, the body weights of the Control group, the Vehicle group, and the CEL-3 administration group after the test were 355.4±5.1 g, 264.91±9.3 g, and 260.0±11.1 g, respectively.

[6] = test system: pulmonary artery smooth muscle cells; details: previous report, Non-patent Literature 3; cited from earlier work
[7] = final concentration 100 nm (so in the source)
[8] = 3 weeks hypoxia, vs control group (FIG. 3)

SMILES	day 2/day 0 cell number ratio (MTT cell viability) ([1]; final concentration 1 μM)	day 2/day 0 cell number ratio (MTT cell viability) ([1]; final concentration 5 μM)	day 2/day 0 cell number ratio (MTT cell viability) [1, 7]	further results
CCCc1cc(Cl)c(O)c(C(=O)c2ccc(Br)[nH]2)c1O [CEL-14]	1.35	0.88	1.37	–
CCCCCCc1cc(Cl)c(O)c(C(=O)c2c[nH]c(Cl)c2Cl)c1O [CEL-19]	1.24	0.94	1.31	–
CCCCCCc1cc(C)c(O)c(C(=O)c2cc(Cl)c(Cl)[nH]2)c1O [CEL-10]	0.68	0.48	1.16	–
CCCCCc1cc(Cl)c(O)c(C(=O)c2cc(Cl)c(Cl)[nH]2)c1O [CEL-5]	0.79	0.53	1.25	–
CCCCCCc1cc(Cl)c(O)c(C(=O)c2cc(Cl)c(Cl)[nH]2)c1O [CEL-1, celastramycin]	0.83	0.52	1.46	binding to ZFC3H1 [2]: binds to a zinc finger protein ZFC3H1; NF-κB-inhibiting action [3]: inhibit signal transduction in which a transcription factor NF-κB is involved
Cc1cc(Cl)c(O)c(C(=O)c2cc(Cl)c(Cl)[nH]2)c1O [CEL-3]	0.99	0.81	1.25	increase in right ventricle/(left ventricle plus septum) weight ratio (RV/[LV+S]) [4, 8]: suppressed; increase in right ventricular systolic pressure (RVSP) [4, 8]: suppressed; body weight after the test ([4]; 3 weeks, Vehicle group 24.2±0.8 g): 23.9 ± 0.7 g; increase in right ventricle/(left ventricle plus septum) weight ratio (RV/[LV+S]) ([5]; vs control group (FIG. 4)): suppressed; increase in right ventricular systolic pressure (RVSP) ([5]; vs control group (FIG. 4)): suppressed; body weight after the test ([5]; Vehicle group 264.91±9.3 g): 260.0 ± 11.1 g
CCCCCCCCc1cc(Cl)c(O)c(C(=O)c2cc(Cl)c(Cl)[nH]2)c1O [CEL-7]	0.84	0.52	1.27	–
O=C(/C=C/c1ccc(O)c(O)c1)OCCc1ccccc1 [caffeic acid phenethyl ester, reference compound]	–	–	–	suppressive effect on the proliferation of pulmonary artery smooth muscle cells ([1]; final concentration 5 μM): not sufficiently suppressed
O=C(Nc1cc(C(F)(F)F)cc(C(F)(F)F)c1)c1cc(Cl)ccc1O [IMD-0354, N-[3,5-bis(trifluoromethyl)phenyl]-5-chloro-2-hydroxybenzamide, reference compound]	–	–	–	NF-κB-inhibiting action [3]: has an NF-κB-inhibiting action; suppression of proliferation of pulmonary artery smooth muscle cells [6]: suppresses the proliferation of pulmonary artery smooth muscle cells
CCCCCCCc1cc(Cl)c(O)c(C(=O)c2cc(Cl)c(Cl)[nH]2)c1O [CEL-6]	0.77	0.54	1.23	–
Cc1ccc(S(=O)(=O)N[C@@H](Cc2ccccc2)C(=O)CCl)cc1 [N-p-tosyl-L-phenylalanine chloromethyl ketone, reference compound]	–	–	–	suppressive effect on the proliferation of pulmonary artery smooth muscle cells ([1]; final concentration 5 μM): not sufficiently suppressed
Cc1ccc(S(=O)(=O)N[C@@H](CCCCN)C(=O)CCl)cc1.Cl [Nα-p-tosyl-L-lysine chloromethyl ketone hydrochloride, reference compound]	–	–	–	suppressive effect on the proliferation of pulmonary artery smooth muscle cells ([1]; final concentration 5 μM): not sufficiently suppressed
CCCCCCc1cc(Cl)c(O)c(C(=O)c2cc(Br)c(Br)[nH]2)c1O [CEL-13]	0.72	0.51	1.20	–
CCCCCCCCCCCCc1cc(Cl)c(O)c(C(=O)c2cc(Cl)c(Cl)[nH]2)c1O [CEL-8]	0.74	0.47	1.13	–
CCCCCCc1cc(Br)c(O)c(C(=O)c2cc(Cl)c(Cl)[nH]2)c1O [CEL-15]	0.78	0.54	1.26	–
CCCCc1cc(Cl)c(O)c(C(=O)c2cc(Cl)c(Cl)[nH]2)c1O [CEL-4]	0.79	0.53	1.24	–
O=C(c1cc(Cl)c(Cl)[nH]1)c1c(O)ccc(Cl)c1O [CEL-2]	1.36	0.87	1.37	–
